Measurements published in article PMC2752672 (Biochemistry, 2009).
Like-named read-outs stand apart in the source and are kept apart here.

Key:
[1] = biological target: T1, KOR (Homo sapiens, UniProt P41145); format: binding; conditions: read-out: Ki a
[2] = biological target: T1, KOR; assay: biochemical; format: biochemical; conditions: for EC50: read-out: EC50 c
[3] = biological target: T1, KOR; format: binding; conditions: read-out: Ki b
[4] = system: C57BL/6J mice; format: in vivo, mouse; conditions: for baseline startle activity: 120-dB stimulus, all doses; for prepulse-dependent PPI: all prepulse intensities
[5] = biological target: T1, KOR; assay: biochemical; format: binding
[6] = storage stability of the compound; conditions: room temperature / prolonged storage

T1 sequence (P41145 whole entry): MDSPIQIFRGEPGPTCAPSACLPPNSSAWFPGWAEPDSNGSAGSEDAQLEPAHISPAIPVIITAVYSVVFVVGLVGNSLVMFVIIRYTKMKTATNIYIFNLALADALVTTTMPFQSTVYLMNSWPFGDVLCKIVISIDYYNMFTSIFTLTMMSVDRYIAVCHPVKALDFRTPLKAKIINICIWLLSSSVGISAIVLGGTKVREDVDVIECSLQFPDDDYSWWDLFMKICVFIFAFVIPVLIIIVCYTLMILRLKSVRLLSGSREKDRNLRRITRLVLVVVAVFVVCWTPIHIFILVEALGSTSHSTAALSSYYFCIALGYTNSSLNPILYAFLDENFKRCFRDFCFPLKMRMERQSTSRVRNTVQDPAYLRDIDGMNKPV

With `COC(=O)C1CC(OC(=O)C(C)Cl)C(=O)C2C1(C)CCC1C(=O)OC(c3ccoc3)CC12C` (single isomer, unassigned) [RB-55-1, (22-S)-22-Chloro-22-methylsalvinorin A] the Ki [1] was 30 ± 15 nM, the “Relative Emax” value [2] was 99 +/− 12% and the EC50 [2] was 160 nM. For the same compound, the Ki [3] was 269 ± 48 nM.

With `COC(=O)C1CC(OC(=O)C(C)Cl)C(=O)C2C1(C)CCC1C(=O)OC(c3ccoc3)CC12C` (single isomer, unassigned) [RB-55-2, (22-R)-22-Chloro-22-methylsalvinorin A] the Ki [1] was 58 ± 32 nM, the “Relative Emax” value [2] was 98 +/− 8% and the EC50 [2] was 273 nM. For the same compound, the Ki [3] was > 3000 nM.

For `Oc1ccc2c3c1O[C@H]1c4[nH]c5c(c4C[C@@]4(O)[C@@H](C2)N(CC2CC2)CC[C@]314)C[C@@]1(O)[C@H]2Cc3ccc(O)c4c3[C@@]1(CCN2CC1CC1)[C@H]5O4` [Nor-BNI, nor-binaltorphimine, reference compound], the “antagonism of agonist-induced disruption of PPI” value ([4]; mouse, in vivo) was “antagonized salvinorin A and RB-64-induced disruption of PPI”.

For `COC(=O)[C@@H]1C[C@H](OC(=O)CCl)C(=O)[C@H]2[C@@]1(C)CC[C@H]1C(=O)O[C@H](c3ccoc3)C[C@]21C` [RB-48, 22-Chlorosalvinorin A], the Ki [1] was 2.1 ± 0.8 nM, the “wash-resistant inhibition of binding (preliminary studies)” value [5] was “resulted in wash-resistant inhibition of binding” and the “Relative Emax” value [2] was 85 ± 3%. It also gave an EC50 [2] of 0.19 ± 0.01 nM and a Ki [3] of 32 ± 15 nM.

In the case of `COC(=O)[C@@H]1C[C@H](OC(=O)CBr)C(=O)[C@H]2[C@@]1(C)CC[C@H]1C(=O)O[C@H](c3ccoc3)C[C@]21C` [RB-50, 22-Bromosalvinorin A], the Ki [1] is reported as 1.5 ± 0.22 nM, the stability on storage [6] is reported as “highly unstable at room temperature” and the “irreversible inhibition of binding, tested as potential affinity ligand” value [5] is reported as “none showed significant irreversible inhibition of binding”. The “Relative Emax” value [2] was 76 +/− 7%, the EC50 [2] was 11 nM and the Ki [3] was 39.6 ± 11.6 nM.

For `COC(=O)C1CC(OC(=O)C(C)Cl)C(=O)C2C1(C)CCC1C(=O)OC(c3ccoc3)CC12C` [RB-55, (22-R,S)-22-Chloro-22-methylsalvinorin A], the Ki [1] was 21 ± 3 nM, the “Relative Emax” value [2] was 83 +/− 10% and the EC50 [2] was 35 nM. For the same compound, the Ki [3] was 189 ± 70.1 nM.

In the case of `COC(=O)[C@@H]1C[C@H](OC(=O)CSC#N)C(=O)[C@H]2[C@@]1(C)CC[C@H]1C(=O)O[C@H](c3ccoc3)C[C@]21C` [RB-64, 22-Thiocyanatosalvinorin A], the “Null Activity (mAmp displacement)” value ([4]; 0.005 mg/kg i.p., mice) is reported as 8.22 ± 3.73 mAmp displacement, the “PPI responses to the 12- and 16-dB prepulses” value ([4]; 0.005 mg/kg, p < 0.010) is reported as “depressed responses” and the “Null Activity (mAmp displacement)” value ([4]; 0.01 mg/kg i.p., mice) is reported as 16.81 ± 4.4 mAmp displacement. The “Null Activity (mAmp displacement)” value ([4]; 0.05 mg/kg i.p., mice) was 64.89 ± 10.88 mAmp displacement, the “PPI responses to the 12- and 16-dB prepulses” value ([4]; 0.05 mg/kg, p < 0.052) was “increased the responses” and the “Null Activity (mAmp displacement)” value ([4]; 0.1 mg/kg i.p., mice) was 51.6 ± 12.16 mAmp displacement. The “overall PPI (overall inhibition) vs vehicle” value ([4]; 0.1 mg/kg i.p., p < 0.046) was “significant reduction in overall inhibition”, the “PPI to the 4 dB prepulse vs vehicle” value ([4]; 0.005, 0.01, or 0.05 mg/kg, p < 0.047) was “enhanced relative to vehicle” and the “overall PPI (overall inhibition) vs vehicle” value ([4]; 0.01 and 0.05 mg/kg i.p., p < 0.021) was “marked increases in overall inhibition”. The “PPI to the 8-dB prepulse vs vehicle” value ([4]; 0.01 and 0.05 mg/kg, p < 0.031) was “increased PPI to the 8-dB prepulse”, the baseline startle activity [4] was “dose-dependent parabolic changes in baseline startle activity” and the “prepulse-dependent PPI” value [4] was “disrupted prepulse-dependent PPI at all prepulse intensities”. For the same compound, the “PPI responses to the 12- and 16-dB prepulses vs vehicle” value ([4]; highest dose (0.1 mg/kg), p < 0.003) was “significantly depressed compared to the vehicle control”, the “in vivo efficacy relative to salvinorin A” value ([4]; in vivo studies (PPI), mice) was 20 fold and the “null activity, in words” value ([4]; two highest doses (0.05, 0.1 mg/kg), compared to vehicle, p < 0.001) was “increased activity”. The “null activity, in words” value ([4]; two lower doses (0.005, 0.01 mg/kg)) was “little effect on null activity”, the stability on storage [6] was “stable compound and may be stored for prolonged time without decomposition” and the “maximum of KOR labeled” value [5] was 59%. The “wash-resistant inhibition of KOR binding” value [5] was 82%, the EC50 ([5]; EC50 for wash-resistant inhibition of binding) was 9 µM and the Emax ([2]; read-out: Relative Emax) was 95 ± 2%.

For `COCC(=O)O[C@H]1C[C@@H](C(=O)OC)[C@]2(C)CC[C@H]3C(=O)O[C@H](c4ccoc4)C[C@]3(C)[C@H]2C1=O` [RB-65, 22-Methoxysalvinorin A], the Ki [1] was 5.7 ± 1.2 nM, the “Relative Emax” value [2] was 99 +/− 11% and the EC50 [2] was 67 nM. The Ki [3] was 431 ± 54.1 nM.

For `COC(=O)C1CC(OC(=O)C(Cl)Cl)C(=O)C2C1(C)CCC1C(=O)OC(c3ccoc3)CC12C` (stereo not shown) [RB-66, 22,22-Dichlorosalvinorin A], the Ki [1] was 911 ± 170 nM, the “Relative Emax” value [2] was 103 +/− 14% and the EC50 [2] was 1680 nM. The Ki [3] was > 10000 nM.

With `COC(=O)[C@@H]1C[C@H](OC(C)=O)C(=O)[C@H]2[C@@]1(C)CC[C@H]1C(=O)O[C@H](c3ccoc3)C[C@]21C` [Salvinorin A, reference compound] the “Null Activity (mAmp displacement)” value ([4]; 0.25 mg/kg i.p., mice) was 19.44 ± 5.83 mAmp displacement, the “Null Activity (mAmp displacement)” value ([4]; 0.5 mg/kg i.p., mice) was 28.79 ± 3.99 mAmp displacement and the “null activity, in words” value ([4]; 0.5 mg/kg, compared to all other doses and vehicle, p < 0.001) was “significant increases in null activity”. The “Null Activity (mAmp displacement)” value ([4]; 1.0 mg/kg i.p., mice) was 13.63 ± 3.65 mAmp displacement, the “PPI at the 8-, 12-, and 16-dB prepulses vs vehicle” value ([4]; 2 mg/kg) was “marked reductions in PPI” and the “PPI responses to 4 dB prepulse vs vehicle” value ([4]; 2 mg/kg) was “unchanged from the vehicle control”. The “Null Activity (mAmp displacement)” value ([4]; 2.0 mg/kg i.p., mice) was 13.76 ± 3.65 mAmp displacement, the “overall PPI (overall inhibition) vs vehicle” value ([4]; 2 mg/kg i.p., p < 0.044) was “significantly suppressed inhibition” and the “PPI responses at the 8- and 12-dB prepulses vs vehicle” value ([4]; 0.25, 0.5, or 1 mg/kg) was “similar”. The “overall PPI (overall inhibition) vs vehicle” value ([4]; 0.25, 0.5, or 1 mg/kg i.p.) was “similar”, the “PPI to the 4-dB prepulse vs vehicle” value ([4]; 0.25, 0.5 or 1 mg/kg, p < 0.051) was “increased PPI to the 4-dB prepulse” and the baseline startle activity [4] was “dose-dependent parabolic changes in baseline startle activity”. For the same compound, the “prepulse-dependent PPI” value [4] was “disrupted prepulse-dependent PPI at all prepulse intensities” and the “effect on radioligand binding after incubation and washing (controls)” value [5] was “did not substantially alter radioligand binding”.
